# Test results from patent US7507860B2 (Pfizer Inc., priority 2004, dated 2009).
# Where a chain is given by its changes, count along the chain named. pIC50: −log10 of the molar value. Read-outs that look alike come from different tables or passages of the source.
# Experiments:
# androgen receptor = molecular target: T1, androgen receptor (Homo sapiens, UniProt P10275); experiment: AR antagonist cell assay (MDA-MB453-MMTV clone 54-19 luciferase reporter, 100 pM DHT); type: cell-based
# T1 sequence (P10275 1-920 Q868H): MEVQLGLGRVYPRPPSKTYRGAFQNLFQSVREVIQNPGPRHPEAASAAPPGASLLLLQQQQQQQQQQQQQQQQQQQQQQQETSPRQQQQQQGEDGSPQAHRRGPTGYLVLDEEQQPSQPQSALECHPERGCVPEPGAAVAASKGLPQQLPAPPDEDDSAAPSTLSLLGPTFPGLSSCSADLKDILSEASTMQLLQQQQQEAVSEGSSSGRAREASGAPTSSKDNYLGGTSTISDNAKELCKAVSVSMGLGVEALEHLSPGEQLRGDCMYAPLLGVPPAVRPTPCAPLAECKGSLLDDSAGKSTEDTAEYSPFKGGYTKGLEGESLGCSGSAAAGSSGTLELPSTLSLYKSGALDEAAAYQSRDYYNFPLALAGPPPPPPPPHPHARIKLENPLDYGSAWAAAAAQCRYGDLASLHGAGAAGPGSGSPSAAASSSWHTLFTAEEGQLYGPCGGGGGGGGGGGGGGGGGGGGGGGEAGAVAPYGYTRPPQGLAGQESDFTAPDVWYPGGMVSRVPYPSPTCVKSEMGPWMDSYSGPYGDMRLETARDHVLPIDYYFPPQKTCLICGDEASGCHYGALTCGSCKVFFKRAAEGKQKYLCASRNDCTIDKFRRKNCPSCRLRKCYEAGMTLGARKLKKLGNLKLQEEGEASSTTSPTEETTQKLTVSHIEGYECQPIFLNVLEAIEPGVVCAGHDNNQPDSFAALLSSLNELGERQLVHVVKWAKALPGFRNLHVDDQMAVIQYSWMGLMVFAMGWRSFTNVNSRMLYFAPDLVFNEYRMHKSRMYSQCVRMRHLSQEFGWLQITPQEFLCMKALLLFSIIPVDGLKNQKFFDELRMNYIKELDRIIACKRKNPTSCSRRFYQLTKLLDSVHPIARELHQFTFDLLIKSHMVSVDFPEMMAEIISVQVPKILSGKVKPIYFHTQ
# Protocol: The compounds ability to antagonize the effects of androgen on the androgen receptor were determined in a whole cell assay as described immediately below.
# Experimental Procedure for AR Antagonist Cell Assay
# This cell line is a stable transfected cell line with MDA-MB453 cell background (a human breast tumor cell line expressing androgen receptor). A MMTV minimal promoter containing ARE was first cloned in front of a firefly luciferase reporter gene. Then the cascade was cloned into transfection vector pUV120puro. […] Puromycin resistant stable cell line was selected. Cell Culture Media and Reagents:
# Plating medium: DMEM (phenol red free), 10% charcoal treated HyClone serum, 1% L-glutamine
# Assay medium: DMEM (phenol red free), 1% charcoal treated HyClone serum, 1% L-glutamine, and 1% penicillin/streptomycin
# • 1. Cells are maintained in culture medium, splitting cells when they reach 80-90% confluence • 2. To test compounds, 10,000 cells/well are plated to opaque 96 cell culture plate in 100 ul/well plating medium, culture for overnight at 37° C. in cell culture incubator • 3. […] Add 10 ul/well freshly prepared DHT (final concentration at 100 pM) to each well, incubate at 37° C. for 17 hr (overnight) • 5.
# The results are reported as the mean of multiple tests as described below (the numbers of tests are indicated in the footnote). N.D. denotes that the compound was not tested.
# [1] = molecular target: T2, human androgen receptor (hAR) (Homo sapiens, UniProt P10275); experiment: Competitive binding analysis on baculovirus/Sf9 generated hAR extracts with 3H-DHT tracer; details: hAR extract, 1 nM 3H-DHT, one hour at 4° C, mean of multiple tests; for pIC50: read-out: AR Binding IC50; for IC50: AR Binding IC50 (nM)
# T2 construct: made in house; host or cells: baculovirus/Sf9 insect cells (crude extract)
# T2 sequence (P10275 1-920): T1 sequence (P10275 1-920 Q868H) with H868Q
# Protocol: The compounds of Formula I have affinity for the androgen receptor. […] The description below describes how the assay was carried out.
# Competitive binding analysis was performed on baculovirus/Sf9 generated hAR extracts in the presence or absence of different concentrations of test agent and a fixed concentration of ^3H-dihydrotestosterone (^3H-DHT) as tracer. This binding assay method is a modification of a protocol previously described (Liao S., et. al. J. Steroid Biochem. 20:11-17 1984). Briefly, progressively decreasing concentrations of compounds are incubated in the presence of hAR extract (Chang et al. P.N.A.S. Vol. 89, pp. […], 1992), hydroxylapatite, and 1 nM^3H-DHT for one hour at 4° C. Subsequently, the binding reactions are washed three times to completely remove excess unbound ^3H-DHT. hAR bound ^3H-DHT levels are determined in the presence of compounds (=i.e competitive binding) and compared to levels bound when no competitor is present (=i.e. maximum binding). Compound binding affinity to the hAR is expressed as the concentration of compound at which one half of the maximum binding is inhibited. Table II below provides the results that were obtained for selected compounds (reported data is the mean of multiple tests as shown below)
# [2] = MDA-MB453-MMTV clone 54-19, inhibition of 100 pM DHT induction, 17 hr; mean of multiple tests; read-out: AR Cell IC50
# [3] = read-out: AR Cell IC50; MDA-MB453-MMTV clone 54-19, inhibition of 100 pM DHT induction, 17 hr; mean of multiple tests
Structure (SMILES),pIC50 (androgen receptor; [2]),pIC50 [1],pIC50 (androgen receptor; [3]),IC50 [1] [nM]
"CCCC(Oc1ccc(C#N)c(C(F)(F)F)c1)C(=O)NCc1ccc2nsnc2c1 (stereo not shown) [Example 31, 2-(4-Cyano-3-trifluoromethyl-phenoxy)-pentanoic acid (benzo[1,2,5]thiadiazo-5-yl-methyl)-amide]",< 6.00,7.08,,
"CC(C)CC(Oc1ccc(C#N)c(C(F)(F)F)c1)C(=O)NCc1cccnc1 (stereo not shown) [Example 19, 2-(4-Cyano-3-trifluoromethyl-phenoxy)-4-methyl-pentanoic acid (pyridin-3-yl-methyl)-amide]",< 6.00,6.88,,
"CCCC(Oc1ccc(C#N)c(Cl)c1)C(=O)NCCc1c[nH]c2ccccc12 (stereo not shown) [Example 101, 2-(3-Chloro-4-cyano-phenoxy)-pentanoic acid [2-(1H-indol-3-yl)-ethyl]-amide]",7.42,7.28,,
"CC(C)CCNC(=O)C(CC(C)C)Oc1ccc(C#N)c(C(F)(F)F)c1 (stereo not shown) [Example 22, 2-(4-Cyano-3-trifluoromethyl-phenoxy)-4-methyl-pentanoic acid (3-methyl-butyl)amide]",< 6.00,6.75,,
"COc1ccc([C@H](C)NC(=O)C(CC(C)C)Oc2ccc(C#N)c(C(F)(F)F)c2)cc1 (stereo in doubt) [Example 121, 2-(4-Cyano-3-trifluoromethyl-phenoxy)-4-methyl-pentanoic acid [1-(4-methoxy-phenyl)-ethyl]-amide]",6.80,6.84,,
"CCCC(Oc1ccc(C#N)c(Cl)c1)C(=O)NCCc1ccc(O)cc1 (stereo not shown) [Example 103, 2-(3-Chloro-4-cyano-phenoxy)-pentanoic acid [2-(4-hydroxy-phenyl)-ethyl]-amide]",,6.85,7.06,
"CC(C)C(Oc1ccc(C#N)c(C(F)(F)F)c1)C(=O)NCc1ccccc1 (stereo not shown) [Example 92, N-Benzyl-2-(4-Cyano-3-trifluoromethyl-phenoxy)-3-methyl-butyramide]",6.25,6.46,,
"CCCC(Oc1ccc(C#N)c(C(F)(F)F)c1)C(=O)NCc1ccc(OC)cc1 (stereo not shown) [Example 46, 2-(4-Cyano-3-trifluoromethyl-phenoxy)-pentanoic acid-4-methoxy-benzylamide]",6.20,6.99,,
CCCC(Oc1ccc(C#N)c(C(F)(F)F)c1)C(=O)NCCc1ccc(O)cc1 (stereo not shown) [Example 66],7.11,,,151
"CCC[C@@H](Oc1ccc(C#N)c(C(F)(F)F)c1)C(=O)NCc1ccccc1C [Example 96, (R)-2-(Cyano-3-trifluoromethyl-phenoxy)-pentanoic acid 2-methyl-benzylamide]",6.86,,,95
"CCCC(Oc1ccc(C#N)c(C(F)(F)F)c1)C(=O)NCc1ccccc1OCC (stereo not shown) [Example 42, 2-(4-Cyano-3-trifluoromethyl-phenoxy)-pentanoic acid-2-ethoxy-benzylamide]",< 6.00,6.86,,
"CCCC(Oc1ccc(C#N)c(Cl)c1)C(=O)NCc1ccccc1 (stereo not shown) [Example 102, 2-(3-Chloro-4-cyano-phenoxy)-pentanoic acid benzylamide]",,6.90,7.57,
"CC(C)CC(Oc1ccc(C#N)c(C(F)(F)F)c1)C(=O)N[C@H](C)c1ccc(O)cc1 (stereo in doubt) [Example 117, 2-(4-Cyano-3-trifluoromethyl-phenoxy)-4-methyl-pentanoic acid [1-(4-hydroxy-phenyl)-ethyl]-amide]",,6.94,7.72,
"Cc1cccc(CNC(=O)C(CC(C)C)Oc2ccc(C#N)c(C(F)(F)F)c2)c1 (stereo not shown) [Example 37, 2-(4-Cyano-3-trifluoromethyl-phenoxy)-4-methyl-pentanoic acid-3-methyl-benzylamide]",< 6.00,7.39,,
"CCC(Oc1ccc(C#N)c(C(F)(F)F)c1)C(=O)NCc1ccccc1 (stereo not shown) [Example 93, N-Benzyl-2-(4-Cyano-3-trifluoromethyl-phenoxy)-butyramide]",6.25,,,485
"CCCC(Oc1ccc(C#N)c(C(F)(F)F)c1)C(=O)NCc1ccc2c(c1)OCO2 (stereo not shown) [Example 29, 2-(4-Cyano-3-trifluoromethyl-phenoxy)-pentanoic acid (benzo[1,3]dioxol-5-yl-methyl)-amide]",< 6.00,6.74,,
"CSCCNC(=O)C(CC(C)C)Oc1ccc(C#N)c(C(F)(F)F)c1 (stereo not shown) [Example 83, 2-(4-Cyano-3-trifluoromethyl-phenoxy)-4-methyl-pentanoic acid (2-methylsulfanyl-ethyl)-amide]",< 6.00,7.07,,
"CC(C)CC(Oc1ccc(C#N)c(C(F)(F)F)c1)C(=O)NCCc1c[nH]c2ccccc12 (stereo not shown) [Example 59, 2-(4-Cyano-3-trifluoromethyl-phenoxy)-4-methyl-pentanoic acid [2-(1H-indol-3-yl)ethyl]amide]",7.00,7.32,,
"CCCC(Oc1ccc(C#N)c(C(F)(F)F)c1)C(=O)N[C@H](C)c1ccc(OC)cc1 (stereo in doubt) [Example 123, 2-(4-Cyano-3-trifluoromethyl-phenoxy)-pentanoic acid [1-(4-methoxy-phenyl)-ethyl]-amide]",6.17,6.19,,
"CCCC(Oc1ccc(C#N)c(C(F)(F)F)c1)C(=O)NC1CCc2ccccc21 (stereo not shown) [Example 57, 2-(4-Cyano-3-trifluoromethyl-phenoxy)-pentanoic acid indan-1-yl-amide]",6.25,6.84,,
